According to patent US20260365692A1, “COMPOSITIONS COMPRISING PROTEINS DISSOLVED IN FLUORINATED SOLVENTS, AND METHODS OF MAKING AND USING THE SAME” (priority 2022, published 2026):

How the values were obtained:
[1] = biological target: bovine serum albumin (BSA) (Bos taurus, UniProt P02769); assay: Circular dichroism with PFNA, BSA
Text: (§1) FIGS. 14A-14L depict circular dichroism spectra of Hb (FIG. 14A), GFP (FIG. 14B), BSA (FIG. 14C), β-Gal (FIG. 14D), rabbit serum IgG (FIG. 14E), transferrin (FIG. 14F), and urease (FIG. 14G) in the absence (black line) or presence (dashed lines) of PFNA. Increasing dash sequence indicated higher concentration of PFNA. FIG. 14H: Change in molar ellipticity at 216 nm (Δθ216) of PFNA-treated proteins, relative to native controls, as a function of increasing ligand concentration. FIG. 14I: Percentage change in secondary structural motifs of Hb, β-Gal and IgG between the native protein and 1 mM PFNA treated samples. β-sheet structures were further differentiated into parallel and antiparallel conformations. Hb, β-Gal and IgG were prioritized for analysis based on their significant spectral shift in the presence of 1 mM PFNA. FIGS. 14J-14L: Sensograms for BSA (FIG. 14J), β-gal (FIG. 14K), and IgG (FIG. 14L) showing relative response (R.U.) at 10, 25, 50, 75, and 100 μM.
(§2) To explore PFNA-mediated changes in protein structure, dose-response circular dichroism (CD) studies were performed (FIG. 14A-14G). […] Remarkably, these structural changes endured even at sub-stoichiometric PFNA:protein ratios (see 0.001 mM PFNA in […]; protein concentration was constant at 0.01 mM).

[2] = biological target: transferrin (Bos taurus, UniProt Q29443); assay: Circular dichroism with PFNA, transferrin; design: species or system bovine
Chain of transferrin (Q29443 20-704): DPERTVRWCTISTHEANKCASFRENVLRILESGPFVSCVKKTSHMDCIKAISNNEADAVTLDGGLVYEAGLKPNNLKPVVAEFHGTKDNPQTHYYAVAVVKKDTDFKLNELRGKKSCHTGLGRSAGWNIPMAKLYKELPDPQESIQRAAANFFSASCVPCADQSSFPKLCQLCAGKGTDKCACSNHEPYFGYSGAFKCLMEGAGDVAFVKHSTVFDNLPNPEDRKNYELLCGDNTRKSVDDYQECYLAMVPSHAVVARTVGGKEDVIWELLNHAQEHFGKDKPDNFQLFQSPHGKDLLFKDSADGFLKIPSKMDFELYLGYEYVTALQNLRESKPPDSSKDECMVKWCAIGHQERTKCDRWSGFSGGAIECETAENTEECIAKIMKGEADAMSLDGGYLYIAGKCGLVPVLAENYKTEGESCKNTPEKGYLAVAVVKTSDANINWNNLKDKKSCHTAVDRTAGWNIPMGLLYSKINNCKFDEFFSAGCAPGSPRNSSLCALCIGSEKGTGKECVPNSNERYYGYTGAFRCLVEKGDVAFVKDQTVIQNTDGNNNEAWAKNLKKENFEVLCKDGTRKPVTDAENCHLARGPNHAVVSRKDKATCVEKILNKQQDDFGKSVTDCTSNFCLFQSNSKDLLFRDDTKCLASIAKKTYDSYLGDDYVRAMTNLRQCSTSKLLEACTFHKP
Text: as §1, §2

[3] = tested on: IgG; assay: Surface plasmon resonance, IgG; format: binding, rabbit; details: after reference correction
Text: as §1
To test this assertion, PFNA binding to three exemplary proteins, BSA, β-Gal and IgG, was studied via isothermal titration calorimetry (ITC) and surface plasmon resonance (SPR) techniques. […] SPR analysis yielded similar results, with sensorgrams (FIGS. 14J-14L) that diverged from a simple 1:1 ligand-protein model. […]

[4] = biological target: T1, BSA (Bos taurus, UniProt P02769); assay: 19F NMR of PFNA with BSA; format: binding, bovine
T1 sequence (P02769 25-607): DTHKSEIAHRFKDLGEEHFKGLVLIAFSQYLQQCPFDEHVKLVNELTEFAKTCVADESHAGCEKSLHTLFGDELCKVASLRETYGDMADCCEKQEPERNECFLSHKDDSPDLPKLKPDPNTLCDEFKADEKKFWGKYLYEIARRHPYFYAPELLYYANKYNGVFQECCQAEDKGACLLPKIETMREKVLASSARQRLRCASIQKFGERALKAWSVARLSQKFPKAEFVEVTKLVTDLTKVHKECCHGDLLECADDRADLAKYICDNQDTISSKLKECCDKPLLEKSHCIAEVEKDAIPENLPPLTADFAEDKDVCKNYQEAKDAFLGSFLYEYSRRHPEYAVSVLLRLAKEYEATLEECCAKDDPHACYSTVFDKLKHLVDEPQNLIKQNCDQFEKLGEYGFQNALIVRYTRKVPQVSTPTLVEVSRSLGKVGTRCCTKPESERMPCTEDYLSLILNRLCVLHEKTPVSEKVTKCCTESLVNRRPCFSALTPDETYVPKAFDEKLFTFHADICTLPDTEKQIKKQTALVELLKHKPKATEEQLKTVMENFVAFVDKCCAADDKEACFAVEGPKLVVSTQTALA
Text: This further supported the conclusion that, like TFE, adsorption of PFNA to protein surfaces aligned the fluorinated tail parallel to the solvent accessible exterior, with further stabilization via F . . . H bonding with surface N—H groups (FIG. 12, FIGS. 12A-12E, and FIG. 13). This ultimately generated the fluorine rich coating that altered water accessibility and promoted secondary structure.

[5] = biological target: human hemoglobin (Hb) (Homo sapiens, UniProt P68871+P69905); assay: Circular dichroism with PFNA, Hb
Chain of human hemoglobin (Hb) (P69905 whole entry): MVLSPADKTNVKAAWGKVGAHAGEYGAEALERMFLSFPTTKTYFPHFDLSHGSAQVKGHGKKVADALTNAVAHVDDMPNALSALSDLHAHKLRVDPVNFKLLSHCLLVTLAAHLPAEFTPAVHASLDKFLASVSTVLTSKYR
Chain of human hemoglobin (Hb) (P68871 whole entry): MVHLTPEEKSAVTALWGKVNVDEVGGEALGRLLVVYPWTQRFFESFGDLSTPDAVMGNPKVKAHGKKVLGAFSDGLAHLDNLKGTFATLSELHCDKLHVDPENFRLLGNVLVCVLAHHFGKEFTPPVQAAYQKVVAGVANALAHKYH
Text: as §1, §2

[6] = tested on: eGFP-PC9 lung cells; assay: Imaging of eGFP-PC9 cells with PFNA; format: cell-based, human; details: PFNA-treated cells
Method: FIG. 21 depicts confocal micrographs of eGFP-PC9 cells in the absence (top) and presence (bottom) of PFNA.
FIG. 22 depicts an analysis of average cellular fluorescence (in relative fluorescence units, RFU) for cells treated without/with PFNA for 1, 2 and 5 hours. Statistical significance was determined using unpaired t-test, with n.s.=not significant, * p<0.05, ** p<0.01 and *** p<0.001.
FIG. 23 depicts analysis of cellular fluorescent area (in relative area units, RAU) for cells treated without/with PFNA for 1, 2 and 5 hours. Statistical significance was determined using unpaired t-test, with n.s.=not significant, * p<0.05, ** p<0.01 and *** p<0.001.
Imaging studies were performed to interpret the effect of PFNA exposure on the transport of endogenous proteins in cells. For these experiments, stably transfected eGFP-PC9 lung cells were prepared to track the time dependent sub-cellular localization of eGFP as a model protein target (FIGS. 21, […]).

[7] = tested on: green fluorescent protein (GFP); assay: Circular dichroism with PFNA, GFP; details: increasing PFNA concentration
Text: as §1, §2

[8] = biological target: T1, BSA; assay: Isothermal titration calorimetry, BSA; format: binding, bovine
Text: To test this assertion, PFNA binding to three exemplary proteins, BSA, β-Gal and IgG, was studied via isothermal titration calorimetry (ITC) and surface plasmon resonance (SPR) techniques. […] SPR analysis yielded similar results, with sensorgrams (FIGS. 14J-14L) that diverged from a simple 1:1 ligand-protein model. […] Similar phenomenon may explain the negative signals of the SPR data and further support the ability of PFNA to modulate the conformational plasticity of adsorbed proteins.

[9] = Temperature-dependent circular dichroism of proteins in PFOc or PBS (Example 4); format: physicochemical; details: dispersed in PFOc using PD-7, heated up to 85 °C
Method: FIGS. 39A-39B depict temperature-dependent CD spectra of the indicated test protein solubilized in PFOc using the PD-7 dispersant, or PBS as a control.
FIG. 40 depicts the change in minimum CD ellipticity over the 40 °C-85 °C temperature interval for the indicated protein dissolved in either PBS or PFOc.
To determine structural integrity of proteins in aqueous and fluorinated environments at elevated temperatures, circular dichroism (CD) was used to probe secondary structure. Proteins were either diluted in PBS (aqueous) or dispersed in PFOc at the same designated concentrations according to protocol described above. For aqueous samples, dissolved proteins were heated between 40 °C to 90 °C, and their corresponding CD spectra at each temperature was measured. For PFOc samples, each of the PFOc dispersed proteins were subjected to heat treatment at 40, 55, 70, and 85 °C for 15 minutes. After that, dispersed proteins were eluted into PBS before having their CD spectra taken. Data is shown by representative ellipticity at each temperature depicted by distinct colors.

Chain of bovine serum albumin (BSA) (P02769 25-607): as the sequence (P02769 25-607) above

## O=C(O)C(F)(F)C(F)(F)C(F)(F)C(F)(F)C(F)(F)C(F)(F)C(F)(F)C(F)(F)F [Compound 7, perfluoronanonic acid]
[1]
  CD structural profile, BSA: remained largely unchanged
[2]
  CD structural profile, transferrin: remained largely unchanged
[3]
  SPR response: negative responses
[4]
  19F NMR peak change upon interaction: broadening of PFNA's peaks
[5]; 0.001-0.1 mM PFNA
  CD structural change, Hb: induced non-native α-helical structure
[5]; 1 mM PFNA
  CD structural change, Hb: slight loss of signal
[6]
  intracellular protein localization: remained relatively unchanged
[6]; particularly 1 hour
  eGFP expression: significant reduction
[7]
  CD structural change, GFP (θ216 nm): slight enhancement of β-sheet structure
[8]
  evolution of heat (ITC): no significant evolution of heat

## β-Gal: β-Galactosidase (β-Gal), dissolved in PBS/saline or dispersed in PFOc
[9]
  change in secondary structure: minimal changes in secondary structure
